Experimental data taken from US5736523A, “Antineoplastic heteronapthoquinones” (Biochem Pharma Inc., priority 1995, dated 1998).
Counter-ions that a name gives are not always drawn.

Test system: SKVLB (Ovarian; multidrug resistant)
Experiment: In vitro cytotoxicity, microculture tetrazolium (MTT) assay, SKVLB
Assay type: cell-based, human
Settings: Homo sapiens, SKVLB, multidrug resistant; read-out: IC50
Description: In Vitro Cytotoxicity--Microculture Tetrazolium Assay
The microculture tetrazolium assay was used to test in vitro cytotoxicity. This assay is described in Plumb, J. A. et al., 1989 Cancer Research 49, 4435-4440, which is herein incorporated by reference. The cytotoxicity of compounds towards tumor cells is measured in vitro using the assay. This assay method is based upon the ability of live, but not dead cells to reduce the yellow water soluble dye 3-(4;5-dimethylthiazol-2-yl)-2,5-diphenyltetrazolium bromide (MTT) to its water insoluble purple formazan product.
Human Tumor Cell lines, used were:
SKVLB (Ovarian; multidrug resistant)--Dr. V. Ling, Ontario
The cells were maintained in exponential growth in culture in minimal essential media (MEM) supplemented with non-essential amino acids, and containing 15% (v/v) fetal bovine serum, 5 mM L-glutamine, 1 mM sodium pyruvate, and 0.1 U/ml insulin. All cell lines were grown at 37° C. in an atmosphere of 5% CO2 in air.
Test compounds: 20 mM in DMSO and diluted to a final concentration of 200 μM in culture medium before use.
The following is the generic description of the assay method. It should be noted that although the conditions described work well with the cells listed above, the initial plating density and the MTT concentration used should be verified for each new cell line used to test compounds.
For each assay, doxorubicin is included as an inter-assay standard. This allows us to monitor the behaviour of the assay in general, and in particular, to check that the SKVLB line has maintained its resistant phenotype.
The plate layout is done in the following manner: The assays are carried out in 96-well (8 well×12 well) microtiter plates. Serial dilutions of the compound are tested along the length of the plate. A 1:3 serial dilution of compound in culture medium covers a concentration range from 100 μM to 1.7 nM. Each concentration of compound is tested in quadruplet, allowing two compounds to be tested per plate. Wells containing no cells (blank) and cells with no test compound (control) are included on each plate.
Cells are plated out in 100 μl of culture medium in the microtiter plates at a density of around 1,500-4,000 cells per well. The plates are incubated overnight to allow the cells to become adherent after which the test compound is added (100 μl of appropriate dilution per well). The cells are incubated with test compound at 37° C. for 48 h after which the compound is replaced with fresh medium. After a further 48 h incubation at 37° C., 50 μl of MTT solution (2 mg/ml) is added to each well. The plates are incubated in the dark for 4 h at 37° C. after which the medium is removed. The MTT formazan product is extracted from the cells by the addition of 200 μl DMSO followed by 50 μl of Sorensen's buffer. The plates are shaken briefly and the absorbance at 570 nm is read using a Molecular Devices UV max plate reader. Curves are fit to the MTT assay data using a four parameter logistic equation, and the data are normalized to fit a 0% to 100% survival scale.

SMILES | IC50 [µM]
CO[C@H]1O[C@H](C(=O)Nc2ccccc2)CC2=C1C(=O)c1ccccc1C2=O (relative stereo) [BCH2041, (1,3-trans)-1-methoxy-3-N-anilinylcarbonyl-5,10-dioxo-3,4,5,10-tetrahydro-1H-naphtho-[2,3-c]-pyran] | 10

Same assay, conditions: ratio SKVLB / SKOV3

SMILES | VLB/OV3
COC(=O)[C@@]1(C)CC2=C(C(=O)c3ccccc3C2=O)[C@H](O[C@H]2C[C@H](NC(=O)C(F)(F)F)[C@H](O)[C@H](C)O2)O1 [BCH2076, (1'S,1S,3R)-1-(3'-trifluoroacetamido-2',3',6'-trideoxy-lyxo-L-hexopyranose)-3-methoxycarbonyl-3-methyl-3,4,5,10-tetrahydro-5,10-dioxonaphtho-[2,3-c] pyran] | 9
CO[C@H]1C[C@H](O[C@H]2O[C@H](C(C)=O)CC3=C2C(=O)c2ccccc2C3=O)O[C@@H](C)[C@H]1OS(C)(=O)=O [BCH2070, (1'-S,1-R,3-S)-methyl-(1-[2',3',4',6' tetradeoxy-3'-methoxy-4'-O-methanesulfonyl-L-lyxohexopyranose)-5,10-dioxo-3,4,5,10 tetrahydronaphtho-[2,3-c]pyran-3-yl) ketone] | 14.34-15
COC(=O)[C@H](CC(C)C)NC(=O)[C@@H](N)CO[C@H]1O[C@H](C(C)=O)CC2=C1C(=O)c1ccccc1C2=O [BCH2000, (1S,2'S,3S,5'S)-Methyl-(1-O-[Serine-Leucine-Me ester]-5,10-dioxo-3,4,5,10-tetrahydro-1-H-naphtho [2,3-c]pyran-3-yl) ketone hydrochloride] | 69.89
COC(=O)C1=CC2=C(C(=O)c3ccccc3C2=O)C(OC)O1 (centres unmarked) [BCH2160, 1-methoxy-3-methoxy carbonyl-5,10-dioxo-5,10-dihydro-1H-naphtho-[2,3-c]-pyran] | 1.85
Nc1nc(C2CC3=C(CO2)C(=O)c2ccccc2C3=O)cs1 (centres unmarked) [BCH1189, 3-(3'-aminothiazolyl)-5,10-dioxo-1,3,4,5,10-pentahydronaphtho-[2,3-c]-pyran] | 4.09
CC(=O)C1CC2=C(C(=O)c3ccccc3C2=O)C(OCC2CCCCN2)O1 (racemic) [BCH2069, Methyl-(1-O-[2'-piperidinemethanol]-5,10-dioxo-3,4,5,10-tetrahydronaphthaleno-[2,3-c]pyran-3-yl) ketone, racemic, hydrochloride] | 2-9.8
COC1OC(C(=O)NCCN2CCCC2)=CC2=C1C(=O)c1ccccc1C2=O.Cl (centres unmarked) [BCH2839, 1-methoxy-3-[2-(N-pyrrolidinyl)ethylaminocarbonyl]-5,10-dioxo-5,10-dihydro-1H-naphtho-[2,3-c]-pyran hydrochloride salt] | 6.14-9.98
CC(=O)C1CC2=C(C(=O)c3ccccc3C2=O)C(OCC2CCCN(C(=O)OC(C)(C)C)C2)O1 (mixture of isomers) [BCH2060, Methyl-(1-O-[N-BOC-3-piperidinemethanol]-5,6-dioxo-3,4,5,10-tetrahydronaphthaleno-[2,3-c]pyran-3-yl) ketone, mixture of isomers] | 2.19
CC(=O)C1CC2=C(C(=O)c3ccccc3C2=O)C(OCC2CCCNC2)O1 (mixture of isomers) [BCH2061, Methyl-(1-O-[3-piperidinemethanol]-5,10-dioxo-3,4,5,10-tetrahydronaphthaleno-[2,3-c]pyran3-yl) ketone hydrochloride salt, mixture of isomers] | 18
CC(C)[C@@H]1CC2=C(C(=O)c3ccccc3C2=O)[C@@H](O[C@H]2C[C@H](NC(=O)C(F)(F)F)[C@H](O)[C@H](C)O2)O1 [BCH2053, (1'S,1R,3S)-5,10-dioxo-3-isopropyl-1-(2',3',6'-trideoxy-3'-trifluoroacetamido-L-lyxohexopyranose)-3,4,5,10-tetrahydro-1H-naphtho-[2,3-c]-pyran] | 4.48
CO[C@H]1O[C@H](C(=O)Nc2ccccc2)CC2=C1C(=O)c1ccccc1C2=O (relative stereo) [BCH2041, (1,3-trans)-1-methoxy-3-N-anilinylcarbonyl-5,10-dioxo-3,4,5,10-tetrahydro-1H-naphtho-[2,3-c]-pyran] | 5
CC(=O)O[C@@H]1[C@H](C)O[C@@H](O[C@H]2O[C@H](C(C)=O)CC3=C2C(=O)c2ccccc2C3=O)C(Br)[C@@H]1OC(C)=O (stereo partly drawn) [BCH2100, (1'S,1R,3S)-methyl-(1-[2',6'-dideoxy-3',4'-diacetoxy-2'-bromo-L-lyxohexopyranose]-5,10-dioxo-3,4,5,10-tetrahydronaphtho-[2,3-c]-pyran-3-yl) ketone] | 3.04
COC(=O)[C@]1(C)CC2=C(C(=O)c3ccccc3C2=O)[C@H](O[C@H]2C[C@H](NC(=O)C(F)(F)F)[C@H](O)[C@H](C)O2)O1 [BCH2081, (1'S,1S,3S)-1-(3'-trifluoroacetamido-2',3',6'-trideoxylyxohexopyranose)-3-methoxycarbonyl-3-methyl-5,10-dioxo-4,5,10-trihydro-1H-naphtho-[2,3-c]-pyran] | 15
CC(=O)[C@H]1CC2=C(C(=O)c3ccc(O)cc3C2=O)[C@H](O[C@H]2C[C@H](NC(=O)C(F)(F)F)[C@H](O)[C@H](C)O2)O1 [BCH1180, (1'S,1S,3R)-Methyl (5,10-dioxo-1-(2',3',6'-trideoxy-3'-trifluoroacetamido-L-lyxohexopyranose)-7-hydroxy-3,4,5,10-tetrahydro [2,3-C]pyran-3-yl) ketone] | 10.20
COC[C@@H]1CC2=C(C(=O)c3ccccc3C2=O)[C@@H](O[C@H]2C[C@H](NC(=O)C(F)(F)F)[C@H](O)[C@H](C)O2)O1 [BCH1691, (1'S,1R,3S)-5,10-dioxo-3-methoxymethyl-1-(2',3',6'-trideoxy-3'-trifluoroacetamido-L-lyxohexopyranose)-3,4,5,10-tetrahydro-1H-naphtho-[2,3-c]-pyran] | 2.10
CC(=O)[C@@H]1CC2=C(C(=O)c3ccc(O)cc3C2=O)[C@@H](O[C@H]2C[C@H](NC(=O)C(F)(F)F)[C@H](O)[C@H](C)O2)O1 [BCH1181, (1'S,1R,3S)-Methyl (5,10-dioxo-1-(2',3',6'-trideoxy-3'-trifluoroacetamido-L-lyxohexopyranose)-7-hydroxy-3,4,5,10-tetrahydro [2,3-C]pyran-3-yl) ketone] | 3.75
CC(C)C(=O)[C@@H]1CC2=C(C(=O)c3ccccc3C2=O)[C@@H](O[C@H]2C[C@H](NC(=O)C(F)(F)F)[C@H](O)[C@H](C)O2)O1 [BCH2112, (1'S,1R,3S)-isopropyl-[1-(2',3',6'-trideoxy-3'-trifluoroacetamido-L-lyxohexopyranose)-5,10-dioxo-3,4,5,10-tetrahydro-1H-naphtho-[2,3-c]-pyranyl]-ketone] | 15.96-17
C[C@@H]1O[C@@H](O[C@H]2O[C@H](COc3ccccc3)CC3=C2C(=O)c2ccccc2C3=O)C[C@H](NC(=O)C(F)(F)F)[C@@H]1O [BCH2032, (1'S,1R,3S)-5,10-dioxo-3-phenyloxymethyl-1-(2',3',6'-trideoxy-3'-trifluoroacetamido-L-lyxohexopyranose)-3,4,5,10-tetrahydro-1H-naphtho-[2,3-c] pyran] | 2-2.93
CC(=O)C1CC2=C(C(=O)c3ccccc3C2=O)C(O[C@H]2C[C@H](NC(=O)C(F)(F)F)[C@H](OS(C)(=O)=O)[C@H](C)O2)O1 (mixture of isomers) [BCH2095, (1'-S,1-S,3-R) and (1'-S,1-R,3-S)-methyl-(1-[2',3',4',6' tetradeoxy-3'-trifluoroacetamido-4'-O-methane-sulfonyl-L-lyxohexopyranose)-5,10-dioxo-3,4,5,10 tetrahydronaphtho-[2,3-c]pyran-3-yl) ketone] | 8.16
CC(=O)[C@H]1CC2=C(C(=O)c3ccccc3C2=O)[C@H](O[C@@H]2O[C@@H](C)[C@@H](O)[C@@H](O)[C@H]2I)O1 [BCH2014, (1'S,1S,3R)-methyl-(1-[2',6'-dideoxy-3',4'-dihydroxy-2'-iodo-L-lyxohexopyranose]-5,10-dioxo-3,4,5,10-tetrahydronaphtho [2,3-c]-pyran-3-yl)-ketone] | 1.85
CO[C@H]1O[C@H](C(=O)O)CC2=C1C(=O)c1ccccc1C2=O (relative stereo) [BCH2045, (1,3-trans)-1-methoxy-3-carboxyl-5,10-dioxo-3,4,5,10-tetrahydro-1H-naphtho-[2,3-c]-pyran] | 3
CC(=O)[C@H]1CC2=C(C(=O)c3ccccc3C2=O)[C@H](O[C@H]2C[C@H](NC(=O)C(F)(F)F)[C@H](Br)[C@H](C)O2)O1 [BCH2047, (1S,3R,1'S)-Methyl-(1-[2',3',4',6'-tetradeoxy-3'-trifluoroacetamido-4'-bromo-L-lyxohexopyranose]-5,10-dioxo-3,4,5,10-tetrahydronaphthaleno-[2,3-c]pyran-3-yl) ketone] | 31
